# Test results reported in patent EP4810038A1, “METHOD FOR TREATING ALK-POSITIVE OR ROS1-POSITIVE NON-SMALL CELL LUNG CANCER” (Shenzhen TargetRx Co., Ltd., priority 2023, dated 2025).
# Where “and” joins values, the source holds several entries; their conditions need not be identical. Equal values may be shown once. Entries after “also recorded” stand apart in the source; their conditions may differ.
# Test system: ALK-positive advanced NSCLC
# Assay: Phase I clinical trial, indication expansion phase: efficacy in ALK-positive patients (group A cohort 1: prior crizotinib only; cohort 2: prior second-generation ALK inhibitor; group C: ALK inhibitor naive)
# Type: in vivo, human
# Experimental: The anti-tumor efficacy is evaluated according to RECIST version 1.1. For patients initially evaluated as having a complete response (CR) or partial response (PR), efficacy should be confirmed at least 4 weeks later. In the patients with asymptomatic central nervous system (CNS) metastases, in addition to evaluating 5 extracranial target lesions, up to 5 intracranial target lesions will also be evaluated. The specific indicators are as follows:
# "ORR" includes CR and PR, and is defined as the proportion of patients who achieve complete response or partial response.
# "IC-ORR" includes CR or PR for confirmed intracranial lesions, and is defined as the proportion of the patients with complete response or partial response of intracranial lesions among the patients with intracranial lesions.
# "DCR" is defined as the proportion of the patients who achieve response (PR+CR) and stable disease (SD) after a treatment.
# "IC-DCR" is defined as the proportion of the patients who achieve intracranial response (PR+CR), intracranial stable disease (SD), and […] after a treatment among the patients with intracranial lesions.
# "DOR" is defined as the time from the first assessment of CR or PR to progressive disease or death, and is only applicable to the patients who achieve response.
# "IC-DOR" is defined as the time from the first assessment of intracranial CR or intracranial PR to progressive disease or death, and is only applicable to the patients whose intracranial lesions achieve response.
# "TTR" is defined as the time from patient enrollment (first dose of investigational drug) to tumor response (CR/PR), based on the patients with objective response.
# "IC-TTR" is defined as the time from patient enrollment (first dose of investigational drug) to intracranial tumor response (IC-CR/PR), based on the patients with intracranial objective response.
# "PFS" is defined as the time from the first administration of the investigational drug to progressive disease (PD) or death from any cause, whichever comes first.
# In the indication expansion phase, an appropriate administration regimen was determined based on the safety, tolerability, PK and efficacy data from the dose escalation phase and dose expansion phase, and the expansion was performed within the target population.
# The result of a pregnancy test conducted ≤7 days prior to the first administration of the investigational drug must be negative for the women of childbearing age.
# [1] = A cohort 2, prior 3 or more second-generation ALK inhibitors, chemotherapy (N=11)
# [2] = A cohort 2, prior 3 or more second-generation ALK inhibitors, no chemotherapy (N=7)
# [3] = A cohort 2, prior one second-generation ALK inhibitor, chemotherapy (N=14)
# [4] = A cohort 2, prior one second-generation ALK inhibitor, no chemotherapy (N=26)
# [5] = A cohort 2, prior two second-generation ALK inhibitors, chemotherapy (N=15)
# [6] = A cohort 2, prior two second-generation ALK inhibitors, no chemotherapy (N=24)
# [7] = intracranial measurable lesions, Group A, cohort 1 (n=4)
# [8] = intracranial measurable lesions, Group A, cohort 2 (n=27)
# [9] = intracranial measurable lesions, Group C (n=8)
# [10] = intracranial measurable lesions, In total (ALK-positive) (n=52)
# [11] = systemic, Group A, cohort 1 (n=14)
# [12] = systemic, Group A, cohort 2 (n=97)
# [13] = systemic, In total (ALK-positive) (n=144)
smiles,measurement,setting,value
"[2H]C([2H])([2H])n1nc2c(c1C#N)-c1cnc(N)c(c1)O[C@H](C)c1cc(F)ccc1C(=O)N(C)C2 [compound A, (10R)-7-amino-12-fluoro-2-(methyl-d3)-10,16-dimethyl-15-oxo-10,15,16,17-tetrahydro-2H-8,4-(metheno)pyrazolo[4,3-h][2,5,11]benzoxadiazacyclotetradecine-3-carbonitrile]",ORR,14 patients previously received crizotinib with or without chemotherapy,71.4%
same,ORR,33 ALK TKI-treatment naive patients,84.8%
same,overall ORR,97 patients previously received a second-generation TKI,39.2%
same,BOR CR,[1],0 n (%)
same,BOR NE,[1],0 n (%)
same,BOR PD,[1],1 (9.1) n (%)
same,BOR PR,[1],3 (27.3) n (%)
same,BOR SD,[1],7 (63.6) n (%)
same,Confirmed ORR (95% CI),[1],"3 (27.3) (6.0, 61.0) n (%)"
same,DCR (95% CI),[1],"10 (90.9) (58.7, 99.8) n (%)"
same,Median TTR (range),[1],"1.35 (1.28, 7.00) months"
same,BOR CR,[2],0 n (%)
same,BOR NE,[2],1 (14.3) n (%)
same,BOR PD,[2],0 n (%)
same,BOR PR,[2],3 (42.9) n (%)
same,BOR SD,[2],3 (42.9) n (%)
same,Confirmed ORR (95% CI),[2],"3 (42.9) (9.9, 81.6) n (%)"
same,DCR (95% CI),[2],"6 (85.7) (42.1, 99.6) n (%)"
same,Median TTR (range),[2],"1.35 (1.35, 1.45) months"
same,BOR CR,[3],0 n (%)
same,BOR NE,[3],1 (7.1) n (%)
same,BOR PD,[3],4 (28.6) n (%)
same,BOR PR,[3],6 (42.9) n (%)
same,BOR SD,[3],3 (21.4) n (%)
same,Confirmed ORR (95% CI),[3],"6 (42.9) (17.7, 71.1) n (%)"
same,DCR (95% CI),[3],"9 (64.3) (35.1, 87.2) n (%)"
same,Median TTR (range),[3],"2.07 (1.35, 6.90) months"
same,BOR CR,[4],0 n (%)
same,BOR NE,[4],0 n (%)
same,BOR PD,[4],6 (23.1) n (%)
same,BOR PR,[4],9 (34.6) n (%)
same,BOR SD,[4],11 (42.3) n (%)
same,Confirmed ORR (95% CI),[4],"9 (34.6) (17.2, 55.7) n (%)"
same,DCR (95% CI),[4],"20 (76.9) (56.4, 91.0) n (%)"
same,Median TTR (range),[4],"1.38 (1.28, 6.80) months"
same,BOR CR,[5],0 n (%)
same,BOR NE,[5],0 n (%)
same,BOR PD,[5],2 (13.3) n (%)
same,BOR PR,[5],6 (40.0) n (%)
same,BOR SD,[5],7 (46.7) n (%)
same,Confirmed ORR (95% CI),[5],"6 (40.0) (16.3, 67.7) n (%)"
same,DCR (95% CI),[5],"13 (86.7) (59.5, 98.3) n (%)"
same,Median DOR (95% CI),[5],"12.45 (5.39, -) months"
same,Median TTR (range),[5],"1.40 (1.31, 2.79) months"
same,BOR CR,[6],0 n (%)
same,BOR NE,[6],0 n (%)
same,BOR PD,[6],3 (12.5) n (%)
same,BOR PR,[6],11 (45.8) n (%)
same,BOR SD,[6],10 (41.7) n (%)
same,Confirmed ORR (95% CI),[6],"11 (45.8) (25.6, 67.2) n (%)"
same,DCR (95% CI),[6],"21 (87.5) (67.6, 97.3) n (%)"
same,Median DOR (95% CI),[6],"12.48 (2.76, -) months"
same,Median TTR (range),[6],"1.38 (1.35, 9.72) months"
same,intracranial ORR,"ALK TKI-naive, 8 patients with measurable CNS lesions at baseline",75%
same,median PFS,"cohort 2 of group A, FAS, as of April 17, 2024",6.87 months
same,BOR CR,[7],1 n (%) and 1 (25.0) n (%)
same,BOR NE,[7],0 n (%)
same,BOR PD,[7],0 n (%)
same,BOR PR,[7],1 n (%) and 1 (25.0) n (%)
same,BOR SD,[7],2 (50.0) n (%)
same,Confirmed ORR (95% CI),[7],"2 (50.0) (6.8, 93.2) n (%)"
same,DCR (95% CI),[7],"4 (100) (39.8, 100.0) n (%)"
same,Median DOR (95% CI),[7],"not reached; also recorded: NR (NR, NR)"
same,Median TTR (range),[7],"1.36 months and 1.36 (1.35, 1.38) months"
same,BOR CR,[8],5 n (%) and 5 (18.5) n (%)
same,BOR NE,[8],1 (3.7) n (%)
same,BOR PD,[8],0 n (%)
same,BOR PR,[8],14 n (%) and 14 (51.9) n (%)
same,BOR SD,[8],7 (25.9) n (%)
same,Confirmed ORR (95% CI),[8],"19 (70.4) (49.8, 86.2) n (%)"
same,DCR (95% CI),[8],"26 (96.3) (81.0, 99.9) n (%)"
same,Median DOR (95% CI),[8],"17.97 months and 17.97 (6.64, NR) months"
same,Median TTR (range),[8],"1.41 months and 1.41 (1.31, 9.72) months"
same,BOR CR,[9],0 n (%)
same,BOR NE,[9],0 n (%)
same,BOR PD,[9],0 n (%)
same,BOR PR,[9],6 n (%) and 6 (75.0) n (%)
same,BOR SD,[9],2 (25.0) n (%)
same,Confirmed ORR (95% CI),[9],"6 (75.0) (34.9, 96.8) n (%)"
same,DCR (95% CI),[9],"8 (100) (63.1, 100) n (%)"
same,Median DOR (95% CI),[9],"not reached; also recorded: NR (4.17, NR)"
same,Median TTR (range),[9],"1.41 months and 1.41 (1.35, 1.45) months"
same,BOR CR,[10],6 (11.5) n (%)
same,BOR NE,[10],2 (3.8) n (%)
same,BOR PD,[10],1 (1.9) n (%)
same,BOR PR,[10],24 (46.2) n (%)
same,BOR SD,[10],19 (36.5) n (%)
same,Confirmed ORR (95% CI),[10],"30 (57.7) (43.2, 71.3) n (%)"
same,DCR (95% CI),[10],"49 (94.2) (84.1, 98.8) n (%)"
same,Median DOR (95% CI),[10],"17.97 (17.97, -) months"
same,Median TTR (range),[10],"1.40 (1.31, 9.72) months"
same,intracranial ORR,"prior crizotinib, four patients with measurable CNS lesions at baseline",50.0%
same,IC-ORR,"prior second-generation TKI, 27 patients with measurable CNS lesions at baseline",70.4%
same,BOR CR,[11],0 n (%)
same,BOR NE,[11],0 n (%)
same,BOR PD,[11],0 n (%)
same,BOR PR,[11],10 n (%) and 10 (71.4) n (%)
same,BOR SD,[11],4 n (%) and 4 (28.6) n (%)
same,Confirmed ORR (95% CI),[11],"10 (71.4) (41.9, 91.6) n (%)"
same,DCR (95% CI),[11],"14 (100) (76.8, 100.0) n (%)"
same,Median DOR (95% CI),[11],"not reached; also recorded: NR (5.585, NR)"
same,Median TTR (range),[11],"2.71 months and 2.71 (1.25, 9.66) months"
same,BOR CR,[12],0 n (%)
same,BOR NE,[12],2 (2.1) n (%)
same,BOR PD,[12],16 (16.5) n (%)
same,BOR PR,[12],38 (39.2) n (%)
same,BOR SD,[12],41 (42.3) n (%)
same,Confirmed ORR (95% CI),[12],"38 (39.2) (29.4, 49.6) n (%)"
same,DCR (95% CI),[12],"79 (81.4) (72.3, 88.6) n (%)"
same,Median DOR (95% CI),[12],"12.48 months and 12.48 (12.45, NR) months"
same,Median TTR (range),[12],"1.38 months and 1.38 (1.28, 9.72) months"
same,BOR CR,"systemic, Group C (n=33)",0 n (%)
same,BOR NE,"systemic, Group C (n=33)",0 n (%)
same,BOR PD,"systemic, Group C (n=33)",1 (3.0) n (%)
same,BOR PR,"systemic, Group C (n=33)",28 n (%) and 28 (84.8) n (%)
same,BOR SD,"systemic, Group C (n=33)",4 n (%) and 4 (12.1) n (%)
same,Confirmed ORR (95% CI),"systemic, Group C (n=33)","28 (84.8) (68.1, 94.9) n (%)"
same,DCR (95% CI),"systemic, Group C (n=33)","32 (97.0) (84.2, 99.9) n (%)"
same,Median DOR (95% CI),"systemic, Group C (n=33)","not reached; also recorded: NR (9.69, NR)"
same,Median TTR (range),"systemic, Group C (n=33)","1.35 months and 1.35 (1.12, 4.21) months"
same,BOR CR,[13],0 n (%)
same,BOR NE,[13],5 (2.9) n (%)
same,BOR PD,[13],21 (12.3) n (%)
same,BOR PR,[13],84 (49.1) n (%)
same,BOR SD,[13],61 (35.7) n (%)
same,Confirmed ORR (95% CI),[13],"84 (49.1) (41.4, 56.9) n (%)"
same,DCR (95% CI),[13],"145 (84.8) (78.5, 89.8) n (%)"
same,Median DOR (95% CI),[13],"12.48 (12.45, -) months"
same,Median TTR (range),[13],"1.38 (1.12, 13.96) months"
